Patent US6737383B1, “Herbicidal oxadiazolidines” (priority 1999, dated 2004)

Tests used:
[1] = system: sunflower; assay: Test E sunflower; assay type: in vivo, Helianthus annuus; details: Preemergence
[2] = system: wild buckwheat; assay: Test E wild buckwheat; assay type: in vivo, Polygonum convolvulus; details: Preemergence
[3] = system: wild mustard; assay: Test E wild mustard; assay type: in vivo, Sinapis arvensis; details: Postemergence; for Plant response rating, Wild mustard: 0 to 100 scale
Outline: (§1)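 Each compound, carried in a non-phytotoxic solvent blend including surfactant, was applied (postemergence: over the top of young plants at 1- to 4-leaf stage). Plants stayed in the greenhouse about 21 to 28 days before visual comparison with untreated controls.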

[4] = system: Russian thistle; assay: Test E Russian thistle; assay type: in vivo, Salsola kali; details: Preemergence
[5] = system: common poppy; assay: Test E common poppy; assay type: in vivo, Papaver rhoeas; details: Postemergence
Outline: as §1

[6] = system: ivyleaf speedwell; assay: Test E postemergence ivyleaf speedwell; assay type: in vivo, Veronica hederaefolia; details: for Plant response rating, Veronica hedera: 0 to 100 scale
Outline: as §1

[7] = system: littleseed canarygrass; assay: Test E littleseed canarygrass; assay type: in vivo, Phalaris minor; details: Postemergence; for Plant response rating, LS canarygrass: 0 to 100 scale
Outline: as §1

[8] = system: galium; assay: Test E galium; assay type: in vivo, Galium aparine; details: Preemergence
[9] = system: green foxtail; assay: Test E green foxtail; assay type: in vivo, Setaria viridis; details: Postemergence; for Plant response rating, Green foxtail: 0 to 100 scale
Outline: as §1

[10] = system: deadnettle; assay: Test E deadnettle; assay type: in vivo, Lamium amplexicaule; details: Preemergence
[11] = system: kochia; assay: Test E kochia; assay type: in vivo, Kochia scoparia; details: Preemergence
[12] = system: jointed goatgrass; assay: Test E jointed goatgrass; assay type: in vivo, Aegilops cylindrica; details: Preemergence
[13] = system: rape; assay: Test E rape; assay type: in vivo, Brassica napus; details: Preemergence
[14] = system: wild mustard; assay: Test E wild mustard; assay type: in vivo, Sinapis arvensis; details: Preemergence
[15] = system: Russian thistle; assay: Test E Russian thistle; assay type: in vivo, Salsola kali; details: Postemergence; for Plant response rating, Russian thistle: 0 to 100 scale
Outline: as §1

[16] = system: annual bluegrass; assay: Test E annual bluegrass; assay type: in vivo, Poa annua; details: Preemergence
[17] = system: field violet; assay: Test E field violet; assay type: in vivo, Viola arvensis; details: Preemergence
[18] = system: sugar beet; assay: Test E sugar beet; assay type: in vivo, Beta vulgaris; details: Preemergence
[19] = system: Johnson grass; assay: Test D Johnson grass; assay type: in vivo, Sorghum halepense; details: Postemergence, 0 to 100 scale
[20] = system: spring wheat; assay: Test E spring wheat; assay type: in vivo, Triticum aestivum; details: Preemergence
[21] = system: chickweed; assay: Test E chickweed; assay type: in vivo, Stellaria media; details: Postemergence; for Plant response rating, Chickweed: 0 to 100 scale
Outline: as §1

[22] = system: winter barley; assay: Test E winter barley; assay type: in vivo, Hordeum vulgare; details: Postemergence; for Plant response rating, Barley (winter): 0 to 100 scale
Outline: as §1

[23] = system: wild buckwheat; assay: Test E wild buckwheat; assay type: in vivo, Polygonum convolvulus; details: Postemergence; for Plant response rating, Wild buckwheat: 0 to 100 scale
Outline: as §1

[24] = system: windgrass; assay: Test E windgrass; assay type: in vivo, Apera spica-venti; details: Preemergence
[25] = Rate 125 g/ha, 0 to 100 scale (0 no effect, 100 complete control)
[26] = Rate 500 g/ha, 0 to 100 scale where 0 is no effect and 100 is complete control
[27] = Rate 500 g/ha, 0 no effect, 100 complete control
[28] = Rate 250 g/ha, 0 to 100 scale where 0 is no effect and 100 is complete control

C=CCn1c(=O)on(C(=O)N(c2ccc(F)cc2)C(C)C)c1=O [Compound 146]
Plant response rating, Sunflower [1, 25]: 20 | Sunflower plant response rating (0 to 100 scale) ([1]; Rate 250 g/ha): 30 | Plant response rating, Sunflower [1, 26]: 30 | Plant response rating, Wild buckwheat [2, 25]: 70 | Wild buckwheat plant response rating (0 to 100 scale) ([2]; Rate 250 g/ha): 85 | Plant response rating, Wild buckwheat [2, 26]: 100 | Plant response rating, Wild mustard ([3]; Rate 62 g/ha): 60 | Plant response rating, Wild mustard ([3]; Rate 125 g/ha): 50 | Plant response rating, Wild mustard [3, 27]: 60 | Wild mustard plant response rating [3, 28]: 40 | Plant response rating, Russian thistle [4, 25]: 0 | Russian thistle plant response rating (0 to 100 scale) ([4]; Rate 250 g/ha): 0 | Plant response rating, Russian thistle [4, 26]: 10 | Plant response rating, Common poppy ([5]; Rate 62 g/ha, 0 to 100 scale): 60 | Plant response rating, Comnion poppy ([5]; Rate 125 g/ha, 0 to 100 scale): 10 | Plant response rating, Common poppy ([5]; Rate 500 g/ha, 0 to 100 scale, 0 no effect, 100 complete control): 10 | Common poppy plant response rating [5, 28]: 0 | Plant response rating, Veronica hedera ([6]; Rate 125 g/ha): 60 | Veronica hedera plant response rating [6, 28]: 40 | Plant response rating, Veronica hedera [6, 27]: 70 | Plant response rating, LS canarygrass ([7]; Rate 62 g/ha): 30 | Plant response rating, LS canarygrass ([7]; Rate 125 g/ha): 30 | Plant response rating, LS canarygrass [7, 27]: 65 | LS canarygrass plant response rating [7, 28]: 30 | Plant response rating, Galium [8, 25]: 40 | Galium plant response rating (0 to 100 scale) ([8]; Rate 250 g/ha): 50 | Plant response rating, Galium [8, 26]: 95 | Plant response rating, Green foxtail ([9]; Rate 62 g/ha): 70 | Plant response rating, Green foxtail ([9]; Rate 125 g/ha): 20 | Plant response rating, Green foxtail [9, 27]: 80 | Green foxtail plant response rating [9, 28]: 70 | Plant response rating, Deadnettle [10, 25]: 40 | Deadnettle plant response rating (0 to 100 scale) ([10]; Rate 250 g/ha): 40 | Plant response rating, Deadnettle [10, 26]: 50 | Plant response rating, Kochia [11, 25]: 0 | Kochia plant response rating (0 to 100 scale) ([11]; Rate 250 g/ha): 50 | Plant response rating, Kochia [11, 26]: 75 | Plant response rating, Jointed goatgra [12, 25]: 45 | Jointed goatgra plant response rating (0 to 100 scale) ([12]; Rate 250 g/ha): 50 | Plant response rating, Jointed goatgra [12, 26]: 50 | Plant response rating, Rape [13, 25]: 60 | Rape plant response rating (0 to 100 scale) ([13]; Rate 250 g/ha): 80 | Plant response rating, Rape [13, 26]: 60 | Plant response rating, Wild mustard [14, 25]: 60 | Wild mustard plant response rating (0 to 100 scale) ([14]; Rate 250 g/ha): 95 | Plant response rating, Wild mustard [14, 26]: 100 | Plant response rating, Russian thistle ([15]; Rate 62 g/ha): 20 | Plant response rating, Russian thistle ([15]; Rate 125 g/ha): 0 | Plant response rating, Russian thistle [15, 27]: 0 | Russian thistle plant response rating [15, 28]: 0 | Plant response rating, Annual bluegras [16, 25]: 60 | Annual bluegras plant response rating (0 to 100 scale) ([16]; Rate 250 g/ha): 80 | Plant response rating, Annual bluegras [16, 26]: 90 | Plant response rating, Field violet [17, 25]: 10 | Field violet plant response rating (0 to 100 scale) ([17]; Rate 250 g/ha): 30 | Plant response rating, Field violet [17, 26]: 50 | Plant response rating, Sugar beet [18, 25]: 60 | Sugar beet plant response rating (0 to 100 scale) ([18]; Rate 250 g/ha): 60 | Plant response rating, Sugar beet [18, 26]: 80 | Plant response rating Johnsongrass ([19]; Rate 64 g/ha, 0 no injury, 100 complete control): 20 | Plant response rating Johnsongrass ([19]; Rate 125 g/ha, 0 no injury, 100 complete control): 35 | Plant response rating Johnsongrass ([19]; Rate 250 g/ha): 50 | Plant response rating Johnsongrass ([19]; Rate 500 g/ha): 65 | Plant response rating, Spring Wheat [20, 25]: 50 | Spring Wheat plant response rating (0 to 100 scale) ([20]; Rate 250 g/ha): 80 | Plant response rating, Spring Wheat [20, 26]: 100 | Plant response rating, Chickweed ([21]; Rate 62 g/ha): 30 | Plant response rating, Chickweed ([21]; Rate 125 g/ha): 0 | Plant response rating, Chickweed [21, 27]: 30 | Chickweed plant response rating [21, 28]: 0 | Plant response rating, Barley (winter) ([22]; Rate 62 g/ha): 5 | Plant response rating, Barley (winter) ([22]; Rate 125 g/ha): 10 | Plant response rating, Barley (winter) [22, 27]: 20 | Barley (winter) plant response rating [22, 28]: 10 | Plant response rating, Wild buckwheat ([23]; Rate 62 g/ha): 20 | Plant response rating, Wild buckwheat ([23]; Rate 125 g/ha): 0 | Plant response rating, Wild buckwheat [23, 27]: 50 | Wild buckwheat plant response rating [23, 28]: 10 | Plant response rating, Windgrass [24, 25]: 100 | Windgrass plant response rating (0 to 100 scale) ([24]; Rate 250 g/ha): 100 | Plant response rating, Windgrass [24, 26]: 100
